Measurements from ChEMBL document CHEMBL4184261, “Activation loop targeting strategy for design of receptor-interacting protein kinase 2 (RIPK2) inhibitors” (Bioorg Med Chem Lett, 2018).
Calls of active or inactive are those of the source. The calls are words filed in the database; no cut-off is given here.

Assays:
[1] = molecular target: Receptor-interacting serine/threonine-protein kinase 2 (Homo sapiens) (UniProt O43353); test: Inhibition of wild type recombinant human His6-tagged RIPK2 at 10 uM using RS repeat peptide substrate incubated for 2 hrs by ADP-Glo assay
[2] = molecular target: Receptor-interacting serine/threonine-protein kinase 2 (Homo sapiens) (UniProt O43353); test: Inhibition of wild type recombinant human His6-tagged RIPK2 at 0.5 uM using RS repeat peptide substrate incubated for 2 hrs by ADP-Glo assay
[3] = molecular target: Receptor-interacting serine/threonine-protein kinase 2 (Homo sapiens) (UniProt O43353); test: Inhibition of wild type recombinant human His6-tagged RIPK2 at 5 uM using RS repeat peptide substrate incubated for 2 hrs by ADP-Glo assay
[4] = system: Receptor-interacting serine/threonine-protein kinase 2 (Homo sapiens), O43353 [R171C]; test: Inhibition of recombinant human His6-tagged RIPK2 R171C mutant at 5 uM using RS repeat peptide substrate incubated for 2 hrs by ADP-Glo assay
[5] = species: Homo sapiens; test: Selectivity index, ratio of IC50 for recombinant human His6-tagged RIPK2 R171C mutant to IC50 for wild type recombinant human His6-tagged RIPK2
[6] = molecular target: Vascular endothelial growth factor receptor 2 (Homo sapiens) (UniProt P35968); test: Inhibition of N-terminal GST tagged recombinant human KDR (789 to end residues) expressed in baculovirus infected Sf9 cells at 20 uM using poly-E4Y1 substrate incubated for 2 hrs by ADP-Glo assay
[7] = species: Homo sapiens; test: Selectivity index, ratio of inhibition of N-terminal GST tagged recombinant human KDR (789 to end residues) expressed in baculovirus infected Sf9 cells to inhibition of wild type recombinant human His6-tagged RIPK2

Sequence of Receptor-interacting serine/threonine-protein kinase 2 (Homo sapiens) (O43353 whole entry): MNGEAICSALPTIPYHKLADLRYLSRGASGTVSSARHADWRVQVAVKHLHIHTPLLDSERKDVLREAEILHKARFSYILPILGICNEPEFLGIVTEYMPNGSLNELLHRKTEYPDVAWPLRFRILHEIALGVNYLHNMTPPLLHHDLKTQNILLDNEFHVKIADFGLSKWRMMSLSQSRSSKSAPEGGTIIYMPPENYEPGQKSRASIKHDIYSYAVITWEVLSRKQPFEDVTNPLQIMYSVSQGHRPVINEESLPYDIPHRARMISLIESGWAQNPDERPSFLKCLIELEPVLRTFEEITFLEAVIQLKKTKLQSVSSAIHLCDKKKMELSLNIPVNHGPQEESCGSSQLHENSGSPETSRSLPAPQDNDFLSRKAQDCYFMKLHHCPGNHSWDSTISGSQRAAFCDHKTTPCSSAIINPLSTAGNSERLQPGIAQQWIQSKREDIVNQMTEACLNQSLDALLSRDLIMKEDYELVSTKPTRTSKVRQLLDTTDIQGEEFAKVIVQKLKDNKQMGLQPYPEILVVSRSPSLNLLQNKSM
Sequence of Receptor-interacting serine/threonine-protein kinase 2 (Homo sapiens), O43353 [R171C] (O43353 whole entry R171C): as the sequence (O43353 whole entry) above, with R171C counted along it
Sequence of Vascular endothelial growth factor receptor 2 (Homo sapiens) (P35968 whole entry): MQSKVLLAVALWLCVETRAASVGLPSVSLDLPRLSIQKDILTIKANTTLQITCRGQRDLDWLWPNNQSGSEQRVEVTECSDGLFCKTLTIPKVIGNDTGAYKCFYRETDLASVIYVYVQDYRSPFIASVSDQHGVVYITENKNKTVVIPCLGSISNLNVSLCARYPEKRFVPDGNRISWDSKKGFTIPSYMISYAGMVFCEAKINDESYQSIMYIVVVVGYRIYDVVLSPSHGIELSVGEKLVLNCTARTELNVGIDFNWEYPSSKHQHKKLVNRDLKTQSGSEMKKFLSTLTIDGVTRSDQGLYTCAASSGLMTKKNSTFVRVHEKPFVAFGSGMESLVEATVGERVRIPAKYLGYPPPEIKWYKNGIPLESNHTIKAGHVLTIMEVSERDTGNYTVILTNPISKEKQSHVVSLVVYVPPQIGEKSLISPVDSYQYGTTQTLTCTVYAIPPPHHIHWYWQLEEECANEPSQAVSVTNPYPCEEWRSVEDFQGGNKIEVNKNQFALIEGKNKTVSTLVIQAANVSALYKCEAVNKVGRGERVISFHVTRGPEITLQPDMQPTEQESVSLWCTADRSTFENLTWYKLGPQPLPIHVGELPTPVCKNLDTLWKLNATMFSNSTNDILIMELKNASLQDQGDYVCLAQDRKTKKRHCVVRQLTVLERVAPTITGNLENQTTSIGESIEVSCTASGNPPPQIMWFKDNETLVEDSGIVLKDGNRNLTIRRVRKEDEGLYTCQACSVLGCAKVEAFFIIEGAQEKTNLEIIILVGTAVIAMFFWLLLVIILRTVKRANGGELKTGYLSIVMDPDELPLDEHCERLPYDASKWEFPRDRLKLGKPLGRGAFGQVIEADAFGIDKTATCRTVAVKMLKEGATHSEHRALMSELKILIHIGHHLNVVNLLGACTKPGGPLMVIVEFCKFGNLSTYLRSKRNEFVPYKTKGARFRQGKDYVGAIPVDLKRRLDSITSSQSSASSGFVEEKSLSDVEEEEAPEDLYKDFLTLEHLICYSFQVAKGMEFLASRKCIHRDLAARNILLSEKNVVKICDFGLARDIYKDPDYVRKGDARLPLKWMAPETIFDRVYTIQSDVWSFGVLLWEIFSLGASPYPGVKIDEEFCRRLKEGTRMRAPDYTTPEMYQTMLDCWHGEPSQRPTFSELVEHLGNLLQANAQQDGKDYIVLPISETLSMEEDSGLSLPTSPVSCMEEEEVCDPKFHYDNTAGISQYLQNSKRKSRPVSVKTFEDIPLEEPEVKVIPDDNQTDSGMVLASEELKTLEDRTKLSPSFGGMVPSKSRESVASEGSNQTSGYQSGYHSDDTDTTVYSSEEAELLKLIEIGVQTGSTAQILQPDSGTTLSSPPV

Row | SMILES | inhibition [2] | inhibition [3] | also measured
1 | Nc1ccc(SCC(=O)O)c(F)c1 | – | – | inhibition [1]: 10%
2 | CNC(=O)c1cc(Oc2ccc(NC(=O)Nc3cccc(SCC(=O)O)c3)c(F)c2)ccn1 | – | 25% | –
3 | CNC(=O)c1cc(Oc2ccc(NC(=O)Nc3ccc(OCCS(C)(=O)=O)c(C)c3)c(F)c2)ccn1 | 35% | – | –
4 | CNC(=O)c1cc(Oc2ccc(NC(=O)Nc3cccc(C(C)(C)N)c3)c(F)c2)ccn1 | 32% | – | –
5 | CNC(=O)c1cc(Oc2ccc(NC(=O)Nc3ccc(C(=O)O)cc3)c(F)c2)ccn1 | inactive | – | –
6 | CNC(=O)c1cc(Oc2ccc(NC(=O)Nc3cccc(C(=O)O)c3)c(F)c2)ccn1 | inactive | – | –
7 | CNC(=O)c1cc(Oc2ccc(NC(=O)Nc3ccc(SCC(=O)O)c(F)c3)c(F)c2)ccn1 | – | 70% | Ratio IC50 [5]: 2; inhibition [6]: 35.8%; Selectivity Index [7]: > 10; inhibition [4]: 64%
8 | CNC(=O)c1cc(Oc2ccc(NC(=O)Nc3ccc(SCC(=O)O)cc3)c(F)c2)ccn1 | – | 27% | inhibition [4]: 17%
9 | CNC(=O)c1cc(Oc2ccc(NC(=O)Nc3cccc(CCN)c3)c(F)c2)ccn1 | 12% | – | –

Second part, led by results:

Row | inhibition [2] | inhibition [3] | SMILES | also measured
10 | 1% | – | CNC(=O)c1cc(Oc2ccc(NC(=O)Nc3ccc(N4CC(=O)NS4(=O)=O)c(C)c3)c(F)c2)ccn1 | –
11 | – | 18% | CNC(=O)c1cc(Oc2ccc(NC(=O)Nc3ccc(CC(=O)O)cc3)c(F)c2)ccn1 | –
12 | – | inactive | CNC(=O)c1cc(Oc2ccc(NC(=O)Nc3cccc(CC(=O)O)c3)c(F)c2)ccn1 | inhibition [4]: inactive
13 | – | 47% | CNC(=O)c1cc(Oc2ccc(NC(=O)Nc3cccc(C(C)(C)C(=O)O)c3)c(F)c2)ccn1 | –
